Results as given in patent US6953779B2, “Melanocortin receptor antagonists and modulations of melanocortin receptor activity” (The Regents of the University of California, priority 1998, dated 2005).

What was measured:
[1] = tested on: dispersion of melanin initiated by norepinephrine, serotonin, vasotocin, PACAP-27; experiment: Selectivity: melanin dispersion initiated by other ligands in melanophores; type: cell-based, Xenopus laevis; conditions: 30 nM
[2] = target: T1, ACTH (MCR-2) receptor endogenous to murine Y1 adrenocortical cells (Mus musculus, UniProt Q64326); experiment: cAMP concentration-response to ACTH-(1-24) in Y1 cells; type: cell-based; conditions: Y1 cells; 30 μM
T1 construct: the ACTH (MCR-2) receptor endogenous to murine Y1 adrenocortical cells; endogenous in cells; host or cells: murine Y1 adrenocortical cells
Experimental: (§1) Peptide concentration-response measurements are made in HEK-293 cells by quantifying cAMP levels using a [8-^3H]-CAMP kit from Amersham. Briefly, cells transfected with MC receptors, plated to confluency in 96-well tissue culture plates, are rinsed for 1 hr with 70% (vol/vol) L-15 medium containing 0.5% bovine serum albumin. […] Cellular debris was separated from extracted samples by centrifugation, 400 μL aliquots of the supernatant lyophilized, and total cAMP content quantified by isotope counting.
Concentration response measurements were made also as described in Example 2, but in Xenopus fibroblasts, COS-7, HEK-293, and Y1 cells.

MCR-3 [3] = target: T2, MCR-3 (Homo sapiens, UniProt P41968); experiment: cAMP concentration-response to α-MSH in HEK-293 cells transfected with human MCR-3; type: cell-based; design: expressed in transfected cells; conditions: presence and absence of 30 μM antagonist
From the text: (§2) A second method for studying MCR antagonists is to use mammalian cells stably transfected with the cDNA for various human MCR. These transfected cells manifest an increased CAMP response to α-MSH stimulation and agents which antagonize MCR will block this stimulating effect of α-MSH. The inhibitory effects of antagonists can be quantified by the change in the effective concentration (EC50) of α-MSH i the presence of antagonist, or by computation of Ki value by a Schild regression analysis.
Peptide concentration-response measurements are made in HEK-293 cells by quantifying cAMP levels using a [8-^3H]-CAMP kit from Amersham. Briefly, cells transfected with MC receptors, plated to confluency in 96-well tissue culture plates, are rinsed for 1 hr with 70% (vol/vol) L-15 medium containing 0.5% bovine serum albumin. After a 30 min exposure to test ligands, HEK-293 cells are rinsed twice with ice-cold 70% phosphate-buffered saline (0.07 g/L CaCl2, 0.07 g/L MgCl2.6H2O, 0.14 g/L KH2PO4, 1.51 g/L Na2HPO4.7H2O, 0.14 g/L KCl, 5.6 g/L NaCl, pH 7.4), and intracellular CAMP extracted with 1 mL of 60% (vol/vol) ethanol. Cellular debris was separated from extracted samples by centrifugation, 400 μL aliquots of the supernatant lyophilized, and total cAMP content quantified by isotope counting.
(§3) HEK-293 cells were maintained and transfected As described in Example 2. […]

MCR-1 [4] = target: T3, MCR-1 (Homo sapiens, UniProt Q01726); experiment: cAMP concentration-response to α-MSH in HEK-293 cells transfected with human MCR-1; type: cell-based; design: expressed in transfected cells; conditions: presence and absence of 30 μM antagonist
From the text: as §2
Human embryonic kidney (HEK-293) cells were maintained in modified Eagle's medium (DMEM/H-16/F-12) with 10% fetal calf serum (FBS), 100 U/mL penicillin “G” and 100 μg/mL streptomycin (P/S; Gemini). Transfections were performed using cDNA containing the human MCR-1 receptor (pcDNAI/NEO.hMC1), or MCR-4 (pcCMV.hMC4) receptors. HEK-293 cells are stably transformed with the human MCR-1 and MCR-4 receptors by electroporating 20 μg of plasmid cDNA using a Gene Pulser transfection apparatus (450 V, 960 μF; BioRad, Hercules, Calif.). […]
Peptide concentration-response measurements are made in HEK-293 cells by quantifying cAMP levels using a [8-^3H]-CAMP kit from Amersham. […] Cellular debris was separated from extracted samples by centrifugation, 400 μL aliquots of the supernatant lyophilized, and total cAMP content quantified by isotope counting. […]

MCR-4 [5] = target: T4, MCR-4 (Homo sapiens, UniProt P32245); experiment: cAMP concentration-response to α-MSH in HEK-293 cells transfected with human MCR-4; type: cell-based; design: expressed in transfected cells; conditions: presence and absence of 30 μM antagonist
Experimental: A second method for studying MCR antagonists is to use mammalian cells stably transfected with the cDNA for various human MCR.
Human embryonic kidney (HEK-293) cells were maintained in modified Eagle's medium (DMEM/H-16/F-12) with 10% fetal calf serum (FBS), 100 U/mL penicillin “G” and 100 μg/mL streptomycin (P/S; Gemini). Transfections were performed using cDNA containing the human MCR-1 receptor (pcDNAI/NEO.hMC1), or MCR-4 (pcCMV.hMC4) receptors. HEK-293 cells are stably transformed with the human MCR-1 and MCR-4 receptors by electroporating 20 μg of plasmid cDNA using a Gene Pulser transfection apparatus (450 V, 960 μF; BioRad, Hercules, Calif.). After six days, stable MC clonal cell lines were selected by addition of 400 μg/ml G-418 to the medium and kept frozen for future use.
as §1, §3

MCR-3 [6] = target: T2, MCR-3; conditions: Ollmann et al.; cited from earlier work
MCR-1 [7] = target: T3, MCR-1; conditions: at concentrations up to 100 nM; Ollmann et al.; cited from earlier work
MCR-4 [8] = target: T4, MCR-4; conditions: Ollmann et al.; cited from earlier work

T3 sequence (Q01726 whole entry): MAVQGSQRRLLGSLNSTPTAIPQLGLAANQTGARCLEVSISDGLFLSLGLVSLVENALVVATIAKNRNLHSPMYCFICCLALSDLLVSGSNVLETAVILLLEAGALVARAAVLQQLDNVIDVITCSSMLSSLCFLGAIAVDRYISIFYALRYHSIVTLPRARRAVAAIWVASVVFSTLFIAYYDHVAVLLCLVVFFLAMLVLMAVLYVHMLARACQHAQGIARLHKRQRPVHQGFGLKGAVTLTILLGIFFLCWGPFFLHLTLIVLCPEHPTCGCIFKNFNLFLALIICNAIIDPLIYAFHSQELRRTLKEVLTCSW
T4 sequence (P32245 whole entry): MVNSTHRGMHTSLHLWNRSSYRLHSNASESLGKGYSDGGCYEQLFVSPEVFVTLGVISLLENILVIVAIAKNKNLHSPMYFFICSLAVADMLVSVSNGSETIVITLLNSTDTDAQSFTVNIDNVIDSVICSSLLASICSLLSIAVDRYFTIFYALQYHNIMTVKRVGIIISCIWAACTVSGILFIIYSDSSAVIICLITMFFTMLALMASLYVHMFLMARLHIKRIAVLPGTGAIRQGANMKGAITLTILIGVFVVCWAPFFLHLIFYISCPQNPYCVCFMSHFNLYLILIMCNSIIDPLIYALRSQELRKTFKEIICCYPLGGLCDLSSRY
T2 sequence (P41968 whole entry): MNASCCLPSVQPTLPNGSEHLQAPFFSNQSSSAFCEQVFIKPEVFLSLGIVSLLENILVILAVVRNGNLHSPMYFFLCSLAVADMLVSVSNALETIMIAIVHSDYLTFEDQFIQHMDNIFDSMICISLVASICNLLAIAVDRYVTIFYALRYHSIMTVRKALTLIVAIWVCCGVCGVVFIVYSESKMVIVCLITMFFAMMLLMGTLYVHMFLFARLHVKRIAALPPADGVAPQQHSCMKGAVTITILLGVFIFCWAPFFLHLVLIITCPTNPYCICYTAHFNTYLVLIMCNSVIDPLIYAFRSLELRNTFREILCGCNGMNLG
T1 sequence (Q64326 whole entry): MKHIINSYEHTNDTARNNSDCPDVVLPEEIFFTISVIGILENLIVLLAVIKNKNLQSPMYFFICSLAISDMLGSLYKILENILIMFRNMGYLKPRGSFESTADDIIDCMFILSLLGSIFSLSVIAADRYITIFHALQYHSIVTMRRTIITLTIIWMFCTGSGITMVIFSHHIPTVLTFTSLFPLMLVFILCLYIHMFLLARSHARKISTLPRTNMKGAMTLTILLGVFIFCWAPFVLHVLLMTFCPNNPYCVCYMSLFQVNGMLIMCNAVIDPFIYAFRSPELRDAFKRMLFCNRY
T1 sequence (Q9D159 whole entry partner): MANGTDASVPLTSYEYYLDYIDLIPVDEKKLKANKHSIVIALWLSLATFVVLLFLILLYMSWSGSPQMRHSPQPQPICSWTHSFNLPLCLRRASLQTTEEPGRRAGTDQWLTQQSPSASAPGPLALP

For `CSCC[C@@H]1NC(=O)[C@H](C)NC(=O)[C@H]([C@@H](C)O)NC(=O)CNC(=O)[C@H](CC(C)C)NC(=O)[C@H](CCCCN)NC(=O)[C@H](CCCNC(=N)N)NC(=O)[C@@H]2CSSC[C@@H]3NC(=O)[C@@H]4CCCN4C(=O)[C@H](C(C)C)NC(=O)[C@H](CCC(N)=O)NC(=O)[C@H](CCC(N)=O)NC(=O)CNC(=O)[C@H](CC(C)C)NC(=O)[C@@H]4CSSC[C@H](NC(=O)[C@H]([C@@H](C)O)NC(=O)[C@H](C)NC(=O)[C@H](CSSC[C@@H](C(=O)N[C@@H](CO)C(=O)N[C@@H](CCCNC(=N)N)C(=O)N[C@H](C(N)=O)[C@@H](C)O)NC(=O)[C@@H]5CCCN5C(=O)[C@H](CC(N)=O)NC1=O)NC(=O)[C@@H]1CCCN1C(=O)[C@H](CC(=O)O)NC(=O)[C@H](CSSC[C@H](NC(=O)[C@H](CCCNC(=N)N)NC(=O)[C@H](CCCNC(=N)N)NC(=O)[C@H](CO)NC(=O)[C@@H](N)CO)C(=O)N[C@@H](C(C)C)C(=O)N[C@@H](CCCNC(=N)N)C(=O)N[C@@H](CC(C)C)C(=O)N[C@@H](Cc1c[nH]cn1)C(=O)N[C@@H](CCC(=O)O)C(=O)N[C@@H](CO)C(=O)N4)NC3=O)C(=O)N[C@@H](Cc1ccc(O)cc1)C(=O)N[C@H]1CSSC[C@H](NC(=O)[C@H](Cc3ccccc3)NC(=O)[C@H](C)NC(=O)[C@H](CC(N)=O)NC(=O)[C@H](Cc3ccccc3)NC(=O)[C@H](Cc3ccccc3)NC(=O)[C@H](CCCNC(=N)N)NC1=O)C(=O)N[C@@H](Cc1ccc(O)cc1)C(=O)N2` [ARP-(83-132)-NH2, SSRRCVRL HESCLGQQVPCCDPCATCYCRFFNAFCYCRKLGTAMNPCSRT], the “effect on concentration-response curves evoked with norepinephrine, serotonin, PACAP-27, and Arg8-vasotocin” value [1] was “no effect”.
In the case of `CC[C@H](C)[C@H](NC(=O)[C@H](CCCNC(=N)N)NC(=O)[C@H](CCCNC(=N)N)NC(=O)[C@H](CC(C)C)NC(=O)[C@H](Cc1ccccc1)NC(=O)CNC(=O)CN)C(=O)N[C@@H](CCCNC(=N)N)C(=O)N1CCC[C@H]1C(=O)N[C@@H](CCCCN)C(=O)N[C@@H](CC(C)C)C(=O)N[C@@H](CCCCN)C(=O)O` [dynorphin A(2-13)], the “shift of the concentration-response curve of ACTH-(1-24) to the right” value [2] was “approximately 15 fold”, the “Dose ratio from α-MSH dose-response curves” value (“Dose ratio” for short) (MCR-3 [3]) was 128±44 and the “Dose ratio” value (MCR-1 [4]) was 250±31. The “Dose ratio” value (MCR-4 [5]) was 147±13.
For “agouti-related protein (ARP): agouti-related protein cloned from non-epidermal tissues (SSRRCVRLHESCLGQQVPCCDPCATCYCRFFNAFCYCRKLGTAMNPCSRT; UniProt O00253 83-132, looked up)”, the “inhibition for MCR-3” value (MCR-3 [6]) is given as “dose dependent inhibition”, the “effect on MCR-1” value (MCR-1 [7]) is given as “little effect” and the “inhibition for MCR-4” value (MCR-4 [8]) is given as “dose dependent inhibition”.
